{
  "source": "patent US8691864B2",
  "about": "“Agents useful for reducing amyloid precursor protein and treating dementia and methods of use thereof” (priority 2000, dated 2014)",
  "key": {"[1]": {"tested_on": "SH-SY-5Y Cells", "test": "MTS toxicity assay in SHSY5Y cells", "format": "cell-based, human", "experimental": "(§1) An enzyme-linked immunosorbent assay was developed to detect secreted APP in SHSY5Y cells, a human neuroblastoma cell line. The purpose of the screen was to discover small molecules that inhibit APP protein synthesis in SHSY5Y cells. SHSY5Y cells were plated at 1×10^5 cells/well in […] of DMEM containing 0.5% heat inactivated FBS in 96 well tissue culture treated plates (Falcon no. 35 3072). 144 MES compounds were tested at final concentrations of […] in 0.1% DMSO. Compounds were added and the plates incubated for 16 hours at 37° C./5% CO2. Maxisorp plates (Nunc no. 437958) were coated overnight with […] capture antibody (Biosource 44-100) diluted in Ca^++ and Mg^++ free PBS. Biosource 44-100 is a mouse mAb that recognizes aa 1-100 of human APP. Plates were blocked for 30 minutes with 1 mg/mL BSA in Ca^++ and Mg^++ free PBS. Plates were washed 3× with wash buffer (Ca^++ and Mg^++ free PBS+0.01% Tween20). […] of supernatants and non-cultured medium controls were transferred from culture plates to ELISA plates. Culture plates were reserved for toxicity analysis. Supernatants were incubated for 4 hours at RT on a plate shaker. After supernatant incubation, plates were washed 3×. Primary antibody (Signet Clone 6E-10 biotin) was added at 0.3125 mg/mL and incubated overnight at 4° C. The recognition site of 6E-10 is aa 1-17 of Ab. For detection, a 1:3000 dilution of horseradish peroxidase conjugated streptavidin (Endogen no. N-100) was incubated for 30 minutes. Plates were washed 3×. Enzyme activity was assessed by incubation with […] TMB substrate solution (Moss no. TMB-US) for 20 minutes. The reaction was stopped by the addition of […] 0.18M sulfuric acid. Optical density was read at 450 nm on Wallac Victor2 plate reader. During the first incubation, toxicity was determined using MTS assay, Cell Titer96 AQ reagent (Promega no. G5430). The background values from the non-cultured medium control were subtracted from the sample values and secreted APP levels and toxicity were expressed as % vehicle control. Of the 144 MES compounds screened, 12 inhibited secreted APP as determined by ELISA. The results are depicted in FIGS. 13A-M.\n(§2) Using the experimental procedure outlined above, APP secretion and toxicity studies were performed on several other non-carbamate compounds, and the results are shown in Tables 3 and 4. The compound structures are provided in Table 2 in the application, which are identified by their MES number."}, "[2]": {"tested_on": "secreted APP", "test": "ELISA for secreted APP in SHSY5Y cells", "format": "cell-based, human", "conditions": "16 hours", "experimental": "as §1, §2"}},
  "data": [
    {"smiles": "COc1ccc2c(c1)[C@@]1(C)CCNC1N2C", "note": "(stereo partly drawn) [MES 9294]", "values": [
      {"measurement": "APP Toxicity SH-SY-5Y Cells (MTS assay)", "setting": "[1]; Dose 2 uM, listed as 9294", "value": 99.9, "unit": "% vehicle control"},
      {"measurement": "APP Toxicity SH-SY-5Y Cells (MTS assay)", "setting": "[1]; Dose 6 uM, listed as 9294", "value": 98.3, "unit": "% vehicle control"},
      {"measurement": "APP Toxicity SH-SY-5Y Cells (MTS assay)", "setting": "[1]; Dose 20 uM, listed as 9294", "value": 100.2, "unit": "% vehicle control"},
      {"measurement": "APP Secretion by SH-SY-5Y Cells", "setting": "[2]; Dose 2 uM, listed as 9294", "value": 105.25, "unit": "% vehicle control"},
      {"measurement": "APP Secretion by SH-SY-5Y Cells", "setting": "[2]; Dose 6 uM, listed as 9294", "value": 90, "unit": "% vehicle control"},
      {"measurement": "APP Secretion by SH-SY-5Y Cells", "setting": "[2]; Dose 20 uM, listed as 9294", "value": 111, "unit": "% vehicle control"}
    ]},
    {"smiles": "CN1CC[C@@]2(C)C3=CC(=O)C(=O)C=C3N(C)C12", "note": "(stereo partly drawn) [MES 9225]", "values": [
      {"measurement": "APP Toxicity SH-SY-5Y Cells (MTS assay)", "setting": "[1]; Dose 2 uM", "value": 104.6, "unit": "% vehicle control"},
      {"measurement": "APP Toxicity SH-SY-5Y Cells (MTS assay)", "setting": "[1]; Dose 6 uM", "value": 100.1, "unit": "% vehicle control"},
      {"measurement": "APP Toxicity SH-SY-5Y Cells (MTS assay)", "setting": "[1]; Dose 20 uM", "value": 66.5, "unit": "% vehicle control"},
      {"measurement": "APP Secretion by SH-SY-5Y Cells", "setting": "[2]; Dose 2 uM", "value": 110.45, "unit": "% vehicle control"},
      {"measurement": "APP Secretion by SH-SY-5Y Cells", "setting": "[2]; Dose 6 uM", "value": 109.2, "unit": "% vehicle control"},
      {"measurement": "APP Secretion by SH-SY-5Y Cells", "setting": "[2]; Dose 20 uM", "value": 59.75, "unit": "% vehicle control"}
    ]},
    {"smiles": "CC1C(=O)N(C)c2ccc(O)cc21", "note": "(stereo not drawn) [MES 9292, 1,3-Dimethyl-5-hydroxyoxindole]", "values": [
      {"measurement": "APP Toxicity SH-SY-5Y Cells (MTS assay)", "setting": "[1]; Dose 2 uM", "value": 102.85, "unit": "% vehicle control"},
      {"measurement": "APP Toxicity SH-SY-5Y Cells (MTS assay)", "setting": "[1]; Dose 6 uM", "value": 103.75, "unit": "% vehicle control"},
      {"measurement": "APP Toxicity SH-SY-5Y Cells (MTS assay)", "setting": "[1]; Dose 20 uM", "value": 104.9, "unit": "% vehicle control"},
      {"measurement": "APP Secretion by SH-SY-5Y Cells", "setting": "[2]; Dose 2 uM", "value": 106.15, "unit": "% vehicle control"},
      {"measurement": "APP Secretion by SH-SY-5Y Cells", "setting": "[2]; Dose 6 uM", "value": 99.55, "unit": "% vehicle control"},
      {"measurement": "APP Secretion by SH-SY-5Y Cells", "setting": "[2]; Dose 20 uM", "value": 100.15, "unit": "% vehicle control"}
    ]},
    {"smiles": "C[C@]12CCN(Cc3ccccc3)C1N(Cc1ccccc1)c1ccc(O)cc12", "note": "(stereo partly drawn) [MES 9238]", "values": [
      {"measurement": "APP Toxicity SH-SY-5Y Cells (MTS assay)", "setting": "[1]; Dose 0.08 uM", "value": 101.8, "unit": "% vehicle control"},
      {"measurement": "APP Toxicity SH-SY-5Y Cells (MTS assay)", "setting": "[1]; Dose 0.25 uM", "value": 103.8, "unit": "% vehicle control"},
      {"measurement": "APP Toxicity SH-SY-5Y Cells (MTS assay)", "setting": "[1]; Dose 0.74 uM", "value": 106.4, "unit": "% vehicle control"},
      {"measurement": "APP Toxicity SH-SY-5Y Cells (MTS assay)", "setting": "[1]; Dose 2 uM", "value": 41.8, "unit": "% vehicle control"},
      {"measurement": "APP Toxicity SH-SY-5Y Cells (MTS assay)", "setting": "[1]; Dose 6 uM", "value": 40.47, "unit": "% vehicle control"},
      {"measurement": "APP Toxicity SH-SY-5Y Cells (MTS assay)", "setting": "[1]; Dose 20 uM", "value": 31.63, "unit": "% vehicle control"},
      {"measurement": "APP Secretion by SH-SY-5Y Cells", "setting": "[2]; Dose 0.08 uM", "value": 117.6, "unit": "% vehicle control"},
      {"measurement": "APP Secretion by SH-SY-5Y Cells", "setting": "[2]; Dose 0.25 uM", "value": 107.7, "unit": "% vehicle control"},
      {"measurement": "APP Secretion by SH-SY-5Y Cells", "setting": "[2]; Dose 0.74 uM", "value": 109.7, "unit": "% vehicle control"},
      {"measurement": "APP Secretion by SH-SY-5Y Cells", "setting": "[2]; Dose 2 uM", "value": 48.57, "unit": "% vehicle control"},
      {"measurement": "APP Secretion by SH-SY-5Y Cells", "setting": "[2]; Dose 6 uM", "value": 39.23, "unit": "% vehicle control"},
      {"measurement": "APP Secretion by SH-SY-5Y Cells", "setting": "[2]; Dose 20 uM", "value": 23.57, "unit": "% vehicle control"}
    ]},
    {"smiles": "COc1ccc2c(c1)[C@]1(C)CCN(Cc3ccccc3)C1N2", "note": "(stereo partly drawn) [MES 9278]", "values": [
      {"measurement": "APP Toxicity SH-SY-5Y Cells (MTS assay)", "setting": "[1]; Dose 2 uM", "value": 97.63, "unit": "% vehicle control"},
      {"measurement": "APP Toxicity SH-SY-5Y Cells (MTS assay)", "setting": "[1]; Dose 6 uM", "value": 98.4, "unit": "% vehicle control"},
      {"measurement": "APP Toxicity SH-SY-5Y Cells (MTS assay)", "setting": "[1]; Dose 20 uM", "value": 96.33, "unit": "% vehicle control"},
      {"measurement": "APP Secretion by SH-SY-5Y Cells", "setting": "[2]; Dose 2 uM", "value": 118.4, "unit": "% vehicle control"},
      {"measurement": "APP Secretion by SH-SY-5Y Cells", "setting": "[2]; Dose 6 uM", "value": 116.8, "unit": "% vehicle control"},
      {"measurement": "APP Secretion by SH-SY-5Y Cells", "setting": "[2]; Dose 20 uM", "value": 120.6, "unit": "% vehicle control"}
    ]},
    {"smiles": "COc1ccc2c(c1)C(C)C(=O)N2C", "note": "(stereo not drawn) [MES 9293]", "values": [
      {"measurement": "APP Toxicity SH-SY-5Y Cells (MTS assay)", "setting": "[1]; Dose 2 uM", "value": 100.8, "unit": "% vehicle control"},
      {"measurement": "APP Toxicity SH-SY-5Y Cells (MTS assay)", "setting": "[1]; Dose 6 uM", "value": 99.85, "unit": "% vehicle control"},
      {"measurement": "APP Toxicity SH-SY-5Y Cells (MTS assay)", "setting": "[1]; Dose 20 uM", "value": 101.95, "unit": "% vehicle control"},
      {"measurement": "APP Secretion by SH-SY-5Y Cells", "setting": "[2]; Dose 2 uM", "value": 97.8, "unit": "% vehicle control"},
      {"measurement": "APP Secretion by SH-SY-5Y Cells", "setting": "[2]; Dose 6 uM", "value": 102.75, "unit": "% vehicle control"},
      {"measurement": "APP Secretion by SH-SY-5Y Cells", "setting": "[2]; Dose 20 uM", "value": 94.45, "unit": "% vehicle control"}
    ]},
    {"smiles": "C=CCO[C@H](c1ccnc2ccccc12)C1CC2CC[N+]1(Cc1c3ccccc3cc3ccccc13)CC2C=C.[Br-]", "note": "(stereo partly drawn) [MES 9257]", "values": [
      {"measurement": "APP Toxicity SH-SY-5Y Cells (MTS assay)", "setting": "[1]; Dose 2 uM", "value": 100.5, "unit": "% vehicle control"},
      {"measurement": "APP Toxicity SH-SY-5Y Cells (MTS assay)", "setting": "[1]; Dose 6 uM", "value": 98.77, "unit": "% vehicle control"},
      {"measurement": "APP Toxicity SH-SY-5Y Cells (MTS assay)", "setting": "[1]; Dose 20 uM", "value": 100, "unit": "% vehicle control"},
      {"measurement": "APP Secretion by SH-SY-5Y Cells", "setting": "[2]; Dose 2 uM", "value": 111.2, "unit": "% vehicle control"},
      {"measurement": "APP Secretion by SH-SY-5Y Cells", "setting": "[2]; Dose 6 uM", "value": 98.9, "unit": "% vehicle control"},
      {"measurement": "APP Secretion by SH-SY-5Y Cells", "setting": "[2]; Dose 20 uM", "value": 99.03, "unit": "% vehicle control"}
    ]},
    {"smiles": "COc1ccc2c(c1)[C@]1(C)CCN(Cc3ccccc3)C1N2C", "note": "(stereo partly drawn) [MES 9276]", "values": [
      {"measurement": "APP Toxicity SH-SY-5Y Cells (MTS assay)", "setting": "[1]; Dose 2 uM, listed as 9276", "value": 92.85, "unit": "% vehicle control"},
      {"measurement": "APP Toxicity SH-SY-5Y Cells (MTS assay)", "setting": "[1]; Dose 6 uM, listed as 9276", "value": 93.5, "unit": "% vehicle control"},
      {"measurement": "APP Toxicity SH-SY-5Y Cells (MTS assay)", "setting": "[1]; Dose 20 uM, listed as 9276", "value": 90.65, "unit": "% vehicle control"},
      {"measurement": "APP Secretion by SH-SY-5Y Cells", "setting": "[2]; Dose 2 uM", "value": 96.15, "unit": "% vehicle control"},
      {"measurement": "APP Secretion by SH-SY-5Y Cells", "setting": "[2]; Dose 6 uM", "value": 116.95, "unit": "% vehicle control"},
      {"measurement": "APP Secretion by SH-SY-5Y Cells", "setting": "[2]; Dose 20 uM", "value": 133.4, "unit": "% vehicle control"}
    ]}
  ]
}
